From the supplement of paper PMC10331698
± gives the standard deviation of the averaged measurements.

What was measured:
Assay in all cases: level (log10 ratio to DMSO vehicle control); higher = higher biomarker level / cell amount than vehicle control
Settings in all cases: in DMSO
[1] = compound: O=S(=O)(O)CCC(F)(F)C(F)(F)C(F)(F)C(F)(F)C(F)(F)C(F)(F)F [6:2 Fluorotelomer sulfonic acid]
Procedure: (§1)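 BioMAP Diversity Plus panel of 12 human primary cell co-culture systems (3C, 4H, LPS, SAg, BT, BF4T, BE3C, CASM3C, HDF3CGF, KF3CT, MyoF, Mphg). Compounds were added 1 h before stimulation and left for 24 h (MyoF 48 h; BT 72 h for soluble read-outs or 6 d for IgG). Biomarkers were read by ELISA, cytotoxicity by SRB, PBMC viability and proliferation by Alamar Blue. Each well value was divided by the mean of 8 DMSO control wells on the same plate and log10 transformed; duplicate blinded samples were tested at 4 concentrations.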

[2] = compound: O=C(O)C(F)(F)C(F)(F)C(F)(F)C(F)(F)C(F)(F)C(F)(F)C(F)(F)C(F)(F)C(F)(F)C(F)F [11-H-Perfluoroundecanoic acid]
Procedure: as §1

[3] = compound: NC(=O)C(F)(F)C(F)(F)C(F)(F)C(F)(F)F [Nonafluoropentanamide]
Procedure: as §1

[4] = compound: OCC(F)(F)C(F)(F)C(F)(F)CO [Hexafluoroamylene glycol]
Procedure: as §1

[5] = compound: FC(F)(F)C(F)(F)C(F)(F)C(F)(F)C(F)(F)C(F)(F)CC1CO1 [3-(Perfluorohexyl)-1,2-epoxypropane]
Procedure: as §1

[6] = compound: O=S(=O)(Cl)C(F)(F)C(F)(F)C(F)(F)C(F)(F)C(F)(F)C(F)(F)C(F)(F)C(F)(F)F [Perfluoro-1-octanesulfonyl chloride]
Procedure: as §1

Test System | level (log10) ([1]; 6700 nM) | level (log10) ([1]; 20000 nM) | level (log10) ([1]; 60000 nM) | level (log10) ([2]; 6700 nM) | level (log10) ([2]; 20000 nM) | level (log10) ([3]; 6700 nM) | level (log10) ([3]; 20000 nM) | level (log10) ([3]; 60000 nM) | level (log10) ([4]; 6700 nM) | level (log10) ([4]; 20000 nM) | level (log10) ([4]; 60000 nM) | level (log10) ([5]; 6700 nM) | level (log10) ([5]; 20000 nM) | level (log10) ([5]; 60000 nM) | level (log10) ([6]; 6700 nM) | level (log10) ([6]; 20000 nM) | level (log10) ([6]; 60000 nM)
BE3C:CD54/ICAM-1 | -0.006 ± 0.0085 | -0.0145 ± 0.005 | -0.04 ± 0.023 | -0.0105 ± 0.0021 | -0.35 ± 0.031 | 0.0025 ± 0.012 | -0.009 ± 0.028 | 0.0025 ± 0.03 | 0.007 ± 0.016 | 0.002 ± 0.0057 | -0.001 ± 0.0014 | 0.0035 ± 0.00071 | 0 ± 0.0071 | -0.0005 ± 0.005 | -0.0045 ± 0.0021 | 0.036 ± 0.0071 | -0.69 ± 0.11
BE3C:CD87/uPAR | 0.003 ± 0.0014 | -0.0065 ± 0.011 | 0.0235 ± 0.018 | 0.0235 ± 0.026 | -0.264 ± 0.019 | 0.012 | 0.0185 ± 0.015 | 0.0115 ± 0.018 | -0.0205 ± 0.011 | -0.016 ± 0.037 | 0.0025 ± 0.022 | 0.0085 ± 0.029 | 0.032 ± 0.037 | 0.06 ± 0.0028 | 0.0825 ± 0.025 | 0.0795 ± 0.0064 | -0.276 ± 0.052
BE3C:CXCL9/MIG | -0.005 ± 0.0014 | -0.004 ± 0.0042 | 0.0015 ± 0.011 | -0.004 ± 0.0057 | -0.905 ± 0.047 | 0.015 ± 0.0071 | -0.001 ± 0.014 | 0.014 | -0.003 ± 0.0085 | -0.0055 ± 0.0035 | 0.0025 ± 0.011 | 0.0095 ± 0.018 | 0.0185 ± 0.016 | 0.023 ± 0.0057 | -0.0025 ± 0.00071 | -0.004 ± 0.0042 | -0.724 ± 0.11
BE3C:CXCL10/IP-10 | 0.0015 ± 0.0021 | -0.0095 ± 0.0078 | -0.0125 ± 0.018 | -0.141 ± 0.012 | -0.874 ± 0.014 | 0.0145 ± 0.021 | -0.005 ± 0.038 | -0.0095 ± 0.015 | -0.009 ± 0.014 | -0.0115 ± 0.011 | -0.007 ± 0.02 | 0.001 ± 0.0057 | 0.001 ± 0.017 | 0.018 ± 0.0014 | -0.0275 ± 0.0064 | -0.165 ± 0.033 | -0.927 ± 0.04
BE3C:EGFR | -0.0075 ± 0.00071 | -0.027 ± 0.0085 | -0.0095 ± 0.0064 | -0.0125 ± 0.021 | -0.12 ± 0.0057 | 0.0025 ± 0.011 | -0.0425 ± 0.029 | -0.0175 ± 0.011 | 0.0035 ± 0.005 | -0.0115 ± 0.0078 | 0.009 ± 0.0071 | -0.001 ± 0.0085 | -0.0015 ± 0.0035 | 0.007 ± 0.013 | -0.0135 ± 0.019 | -0.0285 ± 0.00071 | -0.121 ± 0.014
BE3C:HLA-DR | -0.0135 ± 0.021 | -0.0175 ± 0.012 | -0.024 ± 0.0099 | -0.0645 ± 0.005 | -0.669 ± 0.0085 | -0.005 ± 0.0042 | -0.016 ± 0.0071 | -0.016 ± 0.0057 | -0.0155 ± 0.0092 | -0.017 ± 0.014 | -0.019 ± 0.024 | 0 ± 0.0099 | -0.0025 ± 0.011 | 0.006 ± 0.017 | -0.006 ± 0.025 | -0.041 ± 0.014 | -0.642 ± 0.14
BF4T:CCL2/MCP-1 | 0.0035 ± 0.0064 | -0.024 ± 0.028 | -0.0335 ± 0.069 | -0.162 ± 0.02 | -0.2635 ± 0.0021 | 0.001 ± 0.013 | -0.0615 ± 0.023 | -0.105 ± 0.03 | 0.013 ± 0.013 | 0.0145 ± 0.016 | 0.039 ± 0.045 | -0.003 ± 0.028 | -0.007 ± 0.028 | 0.017 ± 0.028 | 0.038 ± 0.028 | -0.0205 ± 0.021 | -0.378 ± 0.021
BF4T:CCL26/Eotaxin-3 | 0.001 ± 0.018 | -0.0535 ± 0.011 | -0.08 ± 0.078 | -0.122 ± 0.014 | -0.234 ± 0.018 | -0.006 ± 0.0071 | -0.055 ± 0.0042 | -0.0525 ± 0.0092 | 0.003 ± 0.051 | 0.002 ± 0.0071 | 0.0395 ± 0.042 | -0.0225 ± 0.076 | -0.016 ± 0.065 | 0.001 ± 0.0042 | -0.0515 ± 0.0064 | -0.142 ± 0.011 | -0.326 ± 0.051
